The target in data set [1] is T1, Liver carboxylesterase 1 (Homo sapiens, UniProt P23141).
T1 sequence (P23141 whole entry): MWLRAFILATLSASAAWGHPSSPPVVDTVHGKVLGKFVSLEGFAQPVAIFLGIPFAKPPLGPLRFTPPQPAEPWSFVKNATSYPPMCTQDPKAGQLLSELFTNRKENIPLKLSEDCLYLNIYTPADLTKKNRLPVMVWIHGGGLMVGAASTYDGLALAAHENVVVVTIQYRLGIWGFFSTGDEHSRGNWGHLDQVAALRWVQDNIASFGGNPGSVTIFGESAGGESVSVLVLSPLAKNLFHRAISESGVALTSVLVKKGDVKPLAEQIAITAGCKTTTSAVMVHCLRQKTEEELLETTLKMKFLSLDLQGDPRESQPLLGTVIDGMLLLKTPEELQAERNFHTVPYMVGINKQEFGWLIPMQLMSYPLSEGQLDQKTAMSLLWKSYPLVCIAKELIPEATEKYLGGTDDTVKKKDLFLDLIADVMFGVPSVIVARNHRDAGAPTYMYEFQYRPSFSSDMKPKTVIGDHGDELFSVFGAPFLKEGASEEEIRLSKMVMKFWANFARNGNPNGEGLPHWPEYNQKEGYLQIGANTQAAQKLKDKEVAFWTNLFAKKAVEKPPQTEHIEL
The experiment in a line: Prodrug activation in human intestine microsomes assessed as carboxylesterase 1-mediated indomethacin formation at 0.25 mM after 30 to 1440 mins by HPLC analysis. The conditions noted are these: 250 µM.

The target of data set [2] is T1, Liver carboxylesterase 1. Briefly: Prodrug activation assessed as human carboxylesterase 1b-mediated indomethacin formation by measuring intrinsic clearance per mg protein at 0.003125 to 0.10 mM after 30 to 180 mins by HPLC based Michaelis-Menten plot analysis. Conditions: isolated protein, 100 µM.
The target of data set [3] is T1, Liver carboxylesterase 1. Briefly: Prodrug activation in human liver microsomes assessed as carboxylesterase 1-mediated indomethacin formation at 0.25 mM after 30 to 1440 mins by HPLC analysis. Conditions: 250 µM. For orientation: Liver microsomes are vesicles of endoplasmic reticulum, rich in cytochrome P450 enzymes.
Substrate in data set [4]: CCCCOC(=O)Cc1c(C)n(C(=O)c2ccc(Cl)cc2)c2ccc(OC)cc12
Briefly: (§1) Prodrug activation assessed as human carboxylesterase 1b-mediated indomethacin formation at 0.003125 to 0.10 mM after 30 to 180 mins by HPLC based Michaelis-Menten plot analysis.

Substrate in data set [5]: CC[C@@H](C)OC(=O)Cc1c(C)n(C(=O)c2ccc(Cl)cc2)c2ccc(OC)cc12
The data set is described as §1.

Substrate in data set [6]: CC[C@@H](OC(=O)Cc1c(C)n(C(=O)c2ccc(Cl)cc2)c2ccc(OC)cc12)c1ccccc1
The description is as §1.

Substrate in data set [7]: COc1ccc2c(c1)c(CC(=O)OCC(C)C)c(C)n2C(=O)c1ccc(Cl)cc1
Described as §1.

Substrate in data set [8]: CC[C@H](C)OC(=O)Cc1c(C)n(C(=O)c2ccc(Cl)cc2)c2ccc(OC)cc12
Described as §1.

Substrate in data set [9]: CCCCSC(=O)Cc1c(C)n(C(=O)c2ccc(Cl)cc2)c2ccc(OC)cc12
The data set is described as §1.

Substrate in data set [10]: COc1ccc2c(c1)c(CC(=O)OCC(C)(C)C)c(C)n2C(=O)c1ccc(Cl)cc1
The data set is described as §1.

Substrate in data set [11]: CC[C@H](OC(=O)Cc1c(C)n(C(=O)c2ccc(Cl)cc2)c2ccc(OC)cc12)c1ccccc1
Described as §1.

Data on ten molecules can be found in ChEMBL document CHEMBL4219117, “Chemical synthesis of an indomethacin ester prodrug and its metabolic activation by human carboxylesterase 1” (Bioorg Med Chem Lett, 2018).

Take `CC[C@@H](C)OC(=O)Cc1c(C)n(C(=O)c2ccc(Cl)cc2)c2ccc(OC)cc12`: the Drug metabolism result at Liver carboxylesterase 1 [1] and at Liver carboxylesterase 1 [3] was “Metabolite_Notdetected” throughout. Moreover, the clearance on Liver carboxylesterase 1 [2] was 4.8 µL/min/mg.

Take `COc1ccc2c(c1)c(CC(=O)OC(C)(C)C)c(C)n2C(=O)c1ccc(Cl)cc1`: the Drug metabolism entry at Liver carboxylesterase 1 [1] and on Liver carboxylesterase 1 [3] was “Metabolite_Notdetected” throughout.

With `CCCCOC(=O)Cc1c(C)n(C(=O)c2ccc(Cl)cc2)c2ccc(OC)cc12`, the Drug metabolism result at Liver carboxylesterase 1 [1] and at Liver carboxylesterase 1 [3] was “Metabolite_Detected” in each case. On Liver carboxylesterase 1 [2], the clearance came to 340 µL/min/mg.

`COc1ccc2c(c1)c(CC(=O)OCC(C)(C)C)c(C)n2C(=O)c1ccc(Cl)cc1`: the results for the Drug metabolism entry at Liver carboxylesterase 1 [1] and on Liver carboxylesterase 1 [3] were “Metabolite_Notdetected” and “Metabolite_Detected”, respectively. Further, the clearance at Liver carboxylesterase 1 [2] came out at 69 µL/min/mg.

As to `COc1ccc2c(c1)c(CC(=O)OCC(C)C)c(C)n2C(=O)c1ccc(Cl)cc1`, the Drug metabolism result on Liver carboxylesterase 1 [1] and at Liver carboxylesterase 1 [3] was “Metabolite_Detected” each time. In addition, at Liver carboxylesterase 1 [2], the clearance was 89 µL/min/mg.

Turning to `CC[C@H](C)OC(=O)Cc1c(C)n(C(=O)c2ccc(Cl)cc2)c2ccc(OC)cc12`, the Drug metabolism entry on Liver carboxylesterase 1 [1] and on Liver carboxylesterase 1 [3] was “Metabolite_Notdetected” throughout. Moreover, the clearance at Liver carboxylesterase 1 [2] is 2.1 µL/min/mg.

With `CC[C@@H](OC(=O)Cc1c(C)n(C(=O)c2ccc(Cl)cc2)c2ccc(OC)cc12)c1ccccc1`, the Drug metabolism result on Liver carboxylesterase 1 [1] and on Liver carboxylesterase 1 [3] was “Metabolite_Notdetected” each time. Also, the clearance at Liver carboxylesterase 1 [2] is 7 µL/min/mg.

`CCCCSC(=O)Cc1c(C)n(C(=O)c2ccc(Cl)cc2)c2ccc(OC)cc12`: the Drug metabolism result at Liver carboxylesterase 1 [1] and at Liver carboxylesterase 1 [3] was “Metabolite_Detected” in each case. Moreover, at Liver carboxylesterase 1 [2], the clearance turned out to be 380 µL/min/mg.

`CC[C@H](OC(=O)Cc1c(C)n(C(=O)c2ccc(Cl)cc2)c2ccc(OC)cc12)c1ccccc1`: the Drug metabolism entry on Liver carboxylesterase 1 [1] and on Liver carboxylesterase 1 [3] was “Metabolite_Notdetected” throughout. Also, on Liver carboxylesterase 1 [2], the clearance was 0.3 µL/min/mg.

B1: Liver carboxylesterase 1 (Homo sapiens) (protein)
chain: T1 sequence (P23141 whole entry)
Usually Km stands for the substrate concentration at which the rate is half of its maximum. In general, Vmax refers to the rate approached at saturating substrate. Consider B1, for which the Km in [4] was 4.4 µM; in [5], 10.1 µM; in data set [6] it was 2.9 µM; in data set [7] it was 13.7 µM; in data set [8] it was 48.5 µM; in [9], 2.1 µM. Also, the Km in [10] came to 4.6 µM; in [11], 6.5 µM. In addition, the maximal velocity (Vmax) was found to be 0.00151 µmol/min in data set [4]; 4.9e-05 µmol/min in [5]; 2.1e-05 µmol/min in data set [6]; 0.00122 µmol/min in [7]; 0.000103 µmol/min in [8]; 0.0008 µmol/min in data set [9]. Also, the Vmax in data set [10] was 0.000322 µmol/min; in [11] it was 2e-06 µmol/min.
